Test results: US9273052B2, “Phthalazinone ketone derivative, preparation method thereof, and pharmaceutical use thereof” (Jiangsu Hansoh Pharmaceutical Co., Ltd., priority 2010, dated 2016)
Where two headings read alike, the source gives them in different places. Values belong to the compound of their own block, whether it stands above or below them.

Legend:
MDA-MB-436 cells = experiment: Cell proliferation inhibition assay (CCK8); type: cell-based; settings: Homo sapiens, 72 hours
[1] = system: human colon carcinoma SW620; experiment: Antitumor effect with temozolomide on SW620 transplanted tumors in nude mice; type: in vivo; settings: colon carcinoma SW620 in BALB/cA-nude mice; 1 mg/kg oral gavage + TMZ 50 mg/kg oral gavage; day 44
Experimental: The therapeutic effect of the compounds of the present invention administered in combination with temozolomide (TMZ) on transplanted tumors of human colon carcinoma SW620 or human breast cancer cells MX-1 in nude mice was evaluated by using BALB/cA-nude mice as test animals.
BALB/cA-nude mice, SPF, 16-20 g, female( ), were purchased from SINO-BRITSH SIPPR/BK LAB. ANIMAL LTD., CO. Certificate No.: SCXK(Shanghai) 2008-0016.
4.2 The right rib of the nude mice was subcutaneously inoculated with colon carcinoma cells SW620. After tumors grew to 339±132 mm^3, mice were randomly divided into teams (d0).
The volume of tumors and the weight of the mice were measured and recorded for 2 to 3 times per week.
The volume of tumor (V) was calculated by the follow equation: V=½×a×b^2 wherein: a, b represents length and width respectively. The antitumor rate(%)=(C−T)/C(%) wherein: T, C represents the tumor volume of the experimental group (tested compounds) and blank control group at the end of the experiment respectively. 5. Dosage, Dosage Regimens and the Results

[2] = Pharmacokinetics assay in SD rats (LC/MS/MS plasma concentration); type: in vivo; settings: 15 mg/kg; for AUC / half-life / MRT / Cmax / bioavailability: both sexes, rat, plasma; for AUC: read-out: Area Under Curve AUC; for half-life: read-out: Half-Life t1/2 (converted); for MRT: read-out: Mean Residence Time MRT; for Cmax: read-out: Plasma Conc. Cmax; for bioavailability: po
Experimental: The pharmacokinetic behavior of the compounds of the present invention was studied and evaluated in rats.
24 Healthy adult SD rats, male and female in half, were purchased from SINO-BRITSH SIPPR/BK LAB. ANIMAL LTD., CO, Certificate No.: SCXK (Shanghai) 2003-0002.
The intragastrical administration group: the right amount of tested compounds were weighed and dissolved in 0.5 mL of DMSO, diluted with physiological saline to 10 mL and prepared to 1.5 mg/mL.
The intravenous injection administration group: the right amount of tested compounds were weighed and added into […].
After an overnight fast, 24 healthy adult SD rats, male and female in half, were administered intragastrically at a dose of 15.0 mg/kg and an administration volume of 10 mL/kg.
(§1) The intragastrical administration group: blood samples (0.2 mL) were taken from orbital sinus at pre administration and at 0.25 hour, 0.5 hour, 1.0 hour, 1.5 hours, 2.0 hours, 3.0 hours, 4.0 hours, 6.0 hours, 7.0 hours, 9.0 hours, 12.0 hours and 24.0 hours post administration, stored in heparinized tubes and centrifuged for 20 minutes at 3,500 rpm to separate plasma. The plasma samples were stored at −20° C. The rats were fed at 2 hours after administration.
as §1, with “intravenous injection” for “intragastrical”, “2 minutes, 15 minutes,” for “0.25 hour,”, “hour,” for “hour, 1.5 hours,”, “8.0” for “7.0 hours, 9.0”, “C.” for “C. The rats were fed at 2 hours after administration.”
20 μL of rat blank plasmas taken at various time points after administration were added with 50 μL of internal standard solution and 140 μL of methanol and mixed for 3 minutes by a vortexer. The mixture was centrifuged for 10 minutes at 13,500 rpm. 20 μL of the supernatant was analyzed by LC-MS/MS. The main pharmacokinetic parameters were calculated by software DAS 2.0.

- IC50 (MDA-MB-436 cells): 0.8 nM
SMILES: O=C(c1cc(Cc2n[nH]c(=O)c3ccccc23)ccc1F)N1CCn2c(nnc2C(F)(F)F)C1 [Example 1, 4-[[4-fluoro-3-[3-(trifluoromethyl)-6,8-dihydro-5H-[1,2,4]triazolo[4,3-a]pyrazine-7-carbonyl]phenyl]methyl]-2H-phthalazin-1-one]
- antitumor rate (%) [1]: ++ (“++”: 60%~80%)

- IC50 (MDA-MB-436 cells): 190 nM
SMILES: COC(=O)c1nc(C(F)(F)F)n2c1CN(C(=O)c1cc(Cc3n[nH]c(=O)c4ccccc34)ccc1F)CC2 [Example 3, methyl 7-[2-fluoro-5-[(4-oxo-3H-phthalazin-1-yl)methyl]benzoyl]-3-(trifluoromethyl)-6,8-dihydro-5H-imidazo[1,5-a]pyrazine-1-carboxylate]

- IC50 (MDA-MB-436 cells): 320 nM
SMILES: O=C(c1cc(Cc2n[nH]c(=O)c3ccccc23)ccc1F)N1CCn2c(cnc2C(F)(F)F)C1 [Example 5, 4-[[4-fluoro-3-[3-(trifluoromethyl)-6,8-dihydro-5H-imidazo[1,5-a]pyrazine-7-carbonyl]phenyl]methyl]-2H-phthalazin-1-one]

- IC50 (MDA-MB-436 cells): 71 nM
- AUC ([2]; intravenous injection): 34800 ± 15500 ng·h/mL
- half-life ([2]; intravenous injection): 0.94 ± 0.26 h
- MRT ([2]; intravenous injection): 1.25 ± 0.53 h
- AUC ([2]; oral gavage): 4500 ± 6670 ng·h/mL
- half-life ([2]; oral gavage): 3.87 ± 4.03 h
- MRT ([2]; oral gavage): 12.7 ± 15.4 h
- Cmax ([2]; oral gavage): 971 ± 1400 ng/mL
- bioavailability [2]: 12.9%
- Apparent Distribution Volume Vz/F ([2]; intravenous injection): 0.64 ± 0.19 kg⁻¹
- Clearance CL/F ([2]; intravenous injection): 0.52 ± 0.29 1/11/kg
- Apparent Distribution Volume Vz/F ([2]; oral gavage): 103 ± 134 kg⁻¹
- Clearance CL/F ([2]; oral gavage): 15.4 ± 12.4 1/11/kg
SMILES: CCNC(=O)c1nc(C(F)(F)F)n2c1CN(C(=O)c1cc(Cc3n[nH]c(=O)c4ccccc34)ccc1F)CC2 [Example 7, N-ethyl-7-[2-fluoro-5-[(4-oxo-3H-phthalazin-1-yl)methyl]benzoyl]-3-(trifluoromethyl)-6,8-dihydro-5H-imidazo[1,5-a]pyrazine-1-carboxamide]

- IC50 (MDA-MB-436 cells): 140 nM
SMILES: NC(=O)c1nc(C(F)(F)F)n2c1CN(C(=O)c1cc(Cc3n[nH]c(=O)c4ccccc34)ccc1F)CC2 [Example 10, 7-[2-fluoro-5-[(4-oxo-3H-phthalazin-1-yl)methyl]benzoyl]-3-(trifluoromethyl)-6,8-dihydro-5H-imidazo[1,5-a]pyrazine-1-carboxamide]

- IC50 (MDA-MB-436 cells): 590 nM
SMILES: O=C(c1cc(Cc2n[nH]c(=O)c3ccccc23)ccc1F)N1CCn2cc(C(F)(F)F)nc2C1 [Example 12, 4-[[4-fluoro-3-[2-(trifluoromethyl)-6,8-dihydro-5H-imidazo[1,2-a]pyrazine-7-carbonyl]phenyl]methyl]-2H-phthalazin-1-one]

- IC50 (MDA-MB-436 cells): 120 nM
- AUC ([2]; intravenous injection): 29400 ± 18500 ng·h/mL
- half-life ([2]; intravenous injection): 5.05 ± 1.34 h
- MRT ([2]; intravenous injection): 0.89 ± 0.44 h
- AUC ([2]; oral gavage): 4300 ± 3250 ng·h/mL
- half-life ([2]; oral gavage): 6.01 ± 2.27 h
- MRT ([2]; oral gavage): 1.87 ± 0.53 h
- Cmax ([2]; oral gavage): 3070 ± 719 ng/mL
- bioavailability [2]: 16.8%
- Apparent Distribution Volume Vz/F ([2]; intravenous injection): 4.70 ± 2.17 kg⁻¹
- Clearance CL/F ([2]; intravenous injection): 0.72 ± 0.45 1/11/kg
- Apparent Distribution Volume Vz/F ([2]; oral gavage): 49.9 ± 52.9 kg⁻¹
- Clearance CL/F ([2]; oral gavage): 4.47 ± 3.78 1/11/kg
SMILES: CNC(=O)c1nc(C(F)(F)F)n2c1CN(C(=O)c1cc(Cc3n[nH]c(=O)c4ccccc34)ccc1F)CC2 [Example 13, 7-[2-fluoro-5-[(4-oxo-3H-phthalazin-1-yl)methyl]benzoyl]-N-methyl-3-(trifluoromethyl)-6,8-dihydro-5H-imidazo[1,5-a]pyrazine-1-carboxamide]

- IC50 (MDA-MB-436 cells): 0.9 nM
SMILES: O=C(c1cccc(Cc2n[nH]c(=O)c3ccccc23)c1)N1CCn2c(nnc2C(F)(F)F)C1 [Example 15, 4-[[3-[3-(trifluoromethyl)-6,8-dihydro-5H-[1,2,4]triazolo[4,3-a]pyrazine-7-carbonyl]phenyl]methyl]-2H-phthalazin-1-one]

- IC50 (MDA-MB-436 cells): 99 nM
SMILES: O=C(c1cc(Cc2n[nH]c(=O)c3ccccc23)ccc1F)N1CCn2ncnc2C1 [Example 16, 4-[[3-(6,8-dihydro-5H-[1,2,4]triazolo[1,5-a]pyrazine-7-carbonyl)-4-fluoro-phenyl]methyl]-2H-phthalazin-1-one]

- IC50 (MDA-MB-436 cells): 61 nM
SMILES: O=C(c1cc(Cc2n[nH]c(=O)c3ccccc23)ccc1F)N1CCn2cnnc2C1 [Example 17, 4-[[3-(6,8-dihydro-5H-[1,2,4]triazolo[4,3-a]pyrazine-7-carbonyl)-4-fluoro-phenyl]methyl]-2H-phthalazin-1-one]

- IC50 (MDA-MB-436 cells): 610 nM
SMILES: O=C(c1cc(Cc2n[nH]c(=O)c3ccccc23)ccc1F)N1CCn2c(C(F)(F)F)nc(C(=O)N3CCCC3)c2C1 [Example 18, 4-[[4-fluoro-3-[1-(pyrrolidine-1-carbonyl)-3-(trifluoromethyl)-6,8-dihydro-5H-imidazo[1,5-a]pyrazine-7-carbonyl]phenyl]methyl]-2H-phthalazin-1-one]

- IC50 (MDA-MB-436 cells): 780 nM
SMILES: CNC(=O)c1nc(C(F)(F)F)n2c1CN(C(=O)c1cccc(Cc3n[nH]c(=O)c4ccccc34)c1)CC2 [Example 21, N-methyl-7-[3-[(4-oxo-3H-phthalazin-1-yl)methyl]benzoyl]-3-(trifluoromethyl)-6,8-dihydro-5H-imidazo[1,5-a]pyrazine-1-carboxamide]

- IC50 (MDA-MB-436 cells): 650 nM
SMILES: CN(C)C(=O)c1nc(C(F)(F)F)n2c1CN(C(=O)c1cc(Cc3n[nH]c(=O)c4ccccc34)ccc1F)CC2 [Example 22, 7-[2-fluoro-5-[(4-oxo-3H-phthalazin-1-yl)methyl]benzoyl]-N,N-dimethyl-3-(trifluoromethyl)-6,8-dihydro-5H-imidazo[1,5-a]pyrazine-1-carboxamide]

- IC50 (MDA-MB-436 cells): 2 nM
SMILES: O=C(c1cc(Cc2n[nH]c(=O)c3ccccc23)ccc1F)N1CCn2c(nnc2C(F)F)C1 [Example 23, 4-[[3-[3-(difluoromethyl)-6,8-dihydro-5H-[1,2,4]triazolo[4,3-a]pyrazine-7-carbonyl]-4-fluoro-phenyl]methyl]-2H-phthalazin-1-one]

- IC50 (MDA-MB-436 cells): 72 nM
SMILES: O=C(NCC1CC1)c1nc(C(F)(F)F)n2c1CN(C(=O)c1cc(Cc3n[nH]c(=O)c4ccccc34)ccc1F)CC2 [Example 24, N-(cyclopropylmethyl)-7-[2-fluoro-5-[(4-oxo-3H-phthalazin-1-yl)methyl]benzoyl]-3-(trifluoromethyl)-6,8-dihydro-5H-imidazo[1,5-a]pyrazine-1-carboxamide]

- IC50 (MDA-MB-436 cells): 3 nM
SMILES: O=C(c1cc(Cc2n[nH]c(=O)c3ccccc23)ccc1F)N1CCn2c(nnc2CC(F)(F)F)C1 [Example 26, 4-[[4-fluoro-3-[3-(2,2,2-trifluoroethyl)-6,8-dihydro-5H-[1,2,4]triazolo[4,3-a]pyrazine-7-carbonyl]phenyl]methyl]-2H-phthalazin-1-one]
